According to patent US8138361B2, “C-10 carbamates of taxanes” (The Trustees Of The University Of Pennsylvania, priority 2005, dated 2012):
Like-named read-outs stand apart in the source and are kept apart here.

Legend:
tubulin = test: Tubulin polymerization assay (ability to promote polymerization of tubulin); assay type: biochemical
Description: The kit is based upon an increase in quantum yield of florescence upon binding of a fluorophore to microtubules. […] Tubulin assembly may also be monitored by light scattering which is approximated by the apparent absorption at 350 nm. In the assay, BSA is employed to prevent aggregation and glycerol, which is a tubulin polymerization enhancer, is omitted from the kit to increase the signal to noise ratio. […]

tumor cell lines = test: Cytotoxicity assay (AlamarBlue, monolayer); assay type: cell-based
Method: Monolayer assays with tumor cell lines (MCF-7 breast carcinoma and HT-29 colorectal carcinoma from ATCC) were carried out in triplicate in 96-well plates with PMI1640 medium containing 5% fetal bovine serum, 100 U/ml penicillin and 100 μg/ml streptomycin. […] Exponentially growing cells (5,000 MCF-7 or HT-29; 1,500 HFF) were plated in 100 μl medium and incubated overnight (5% CO2, 37° C.). Compounds (20 pM to 20 μM final concentration, 6-8 doses) and vehicle (DMSO) controls were added and the incubation was continued for an additional 72 hours. […] EC50 values were generated from dose-response curves by a 4-parameter method using Softmax PRO software, Mean FC50s (±SD) represent the average of all tests carried out for all lots of a given compound.
1. Cells: • a. Breast tumor cell lines, MCF-7 and NCI/ADR-RES • b. Colon tumor cell lines: HCT-15 and HT-29 • c. Leukemia cell line K562 and K562/R • d. Non-small cell lung cancer cell line A549 • e. Human foreskin fibroblast cells (HFF) • f. Human umbilical vein endothelial cells (HUVEC)
2. Cell Culture: • a. All tumor cells were grown in RPMI1640 medium supplemented with 5% (v/v) fetal bovine serum and the antibiotics in a final concentration of 100 U/ml of penicillin and 100 μg/ml of streptomycin in an atmosphere of 5% CO2. • b. HFF and HUVEC were grown in the medium of FGM-2 and EGM-2 from Cambrex,
3. Cytotoxicity Assay: • a. Day 1: Cells growing exponentially were transferred to 96-well tissue culture plates. All cell types were plated at a density of 1,500-5,000 cells per well in 100 μl complete medium. • b. Day 2: 100 μl of experimental compounds in complete medium was added in triplicate wells, • c. Day 5; Cell growth inhibition was assayed using the AlamarBlue (BioSource, Camarillo, Calif.) signal reduction assay. Correlation between AlamarBlue and cell proliferation has been established in the literature. Compound concentration versus relative fluorescence units was plotted.
Detailed procedures for conducting the assays are provided herein and are known in the art.

Pgp = target: T1, Pgp (Bos taurus, UniProt A0A3Q1MB23); test: Rhodamine 123 uptake assay in Bovine Brain Endothelial Cells (BBEC); assay type: cell-based; conditions: 25 micromolar; for Rhodamine 123 uptake: 45 min incubation, fluorescence normalized to protein content, average
T1 construct: Bovine Brain Endothelial Cells (BBEC) express Pgp; endogenous in cells; host or cells: Bovine Brain Endothelial Cells (BBEC)
T1 sequence (A0A3Q1MB23 1-1267): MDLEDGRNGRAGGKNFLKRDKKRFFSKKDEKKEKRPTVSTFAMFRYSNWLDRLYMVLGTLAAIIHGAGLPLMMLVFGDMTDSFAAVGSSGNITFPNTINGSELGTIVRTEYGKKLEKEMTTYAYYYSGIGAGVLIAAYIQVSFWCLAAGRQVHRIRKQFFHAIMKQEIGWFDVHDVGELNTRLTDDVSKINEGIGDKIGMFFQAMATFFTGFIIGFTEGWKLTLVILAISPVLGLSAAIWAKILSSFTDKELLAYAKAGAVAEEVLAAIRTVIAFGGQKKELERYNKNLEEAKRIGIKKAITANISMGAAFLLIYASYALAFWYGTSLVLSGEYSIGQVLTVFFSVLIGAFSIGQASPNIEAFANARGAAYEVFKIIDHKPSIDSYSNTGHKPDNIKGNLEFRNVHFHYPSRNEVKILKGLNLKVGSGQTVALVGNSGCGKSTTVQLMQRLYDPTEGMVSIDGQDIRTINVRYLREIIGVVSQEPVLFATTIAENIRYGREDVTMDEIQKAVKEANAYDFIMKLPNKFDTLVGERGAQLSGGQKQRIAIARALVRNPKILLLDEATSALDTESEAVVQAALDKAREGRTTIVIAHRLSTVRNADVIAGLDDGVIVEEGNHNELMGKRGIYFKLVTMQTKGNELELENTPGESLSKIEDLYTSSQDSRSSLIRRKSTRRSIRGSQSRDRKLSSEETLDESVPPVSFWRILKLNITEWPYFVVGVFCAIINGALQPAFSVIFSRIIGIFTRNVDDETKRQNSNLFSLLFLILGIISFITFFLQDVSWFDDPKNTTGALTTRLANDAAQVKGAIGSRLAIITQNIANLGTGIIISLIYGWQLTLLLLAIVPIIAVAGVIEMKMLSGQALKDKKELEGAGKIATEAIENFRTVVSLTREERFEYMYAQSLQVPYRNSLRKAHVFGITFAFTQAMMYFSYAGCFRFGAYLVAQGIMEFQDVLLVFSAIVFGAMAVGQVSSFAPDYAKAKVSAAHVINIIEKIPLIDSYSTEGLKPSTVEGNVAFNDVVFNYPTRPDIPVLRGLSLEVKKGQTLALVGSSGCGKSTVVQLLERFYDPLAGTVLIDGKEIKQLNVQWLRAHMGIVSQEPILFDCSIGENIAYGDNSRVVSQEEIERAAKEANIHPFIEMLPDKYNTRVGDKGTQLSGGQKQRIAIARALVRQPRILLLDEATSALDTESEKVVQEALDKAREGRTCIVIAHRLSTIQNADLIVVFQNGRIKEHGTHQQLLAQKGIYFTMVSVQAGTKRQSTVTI
Method: Bovine Brain Endothelial Cells (BBEC) express Pgp and are commonly used as model for Blood Brain Barrier (BBB).
All compounds and controls were run in triplicates.
The experiment was run in two 24-wells plates. […] After addition of the test compounds, cells were incubated for 45 min. After this time the drug solutions were removed by aspiration. The monolayers were then rinsed three times with ice-cold PBSG and finally solubilized with 1 mL of lysing solution for 30 min.

[1] = average %, relative to paclitaxel
[2] = average EC50, cell line not given, 72 hours incubation

CC(=O)OC12COC1CC(O)C1(C)C(=O)C(OC(=O)N3CCOCC3)C3=C(C)C(OC(=O)C(O)C(NC(=O)c4ccccc4)c4ccccc4)CC(O)(C(OC(=O)c4ccccc4)C21)C3(C)C (centres unmarked) [Compound 7, PXL-10Ca-Morpholine]
MPA: ability of the compound to promote polymerization of tubulin, expressed as percentage of the activity of paclitaxel (tubulin): a (key: a > 70%; b = 30-70%; c < 40%)
EC50 (tumor cell lines): 0.01 to 0.5 µM

CC(=O)OC12COC1CC(O)C1(C)C(=O)C(OC(=O)n3cnc4ccccc43)C3=C(C)C(OC(=O)C(O)C(NC(=O)c4ccccc4)c4ccccc4)CC(O)(C(OC(=O)c4ccccc4)C21)C3(C)C (centres unmarked) [Compound 8, 10-O-deacetyl-paclitaxel-10-O-carbonyl-N-benzimidazole]
MPA: ability of the compound to promote polymerization of tubulin, expressed as percentage of the activity of paclitaxel (tubulin; [1]): b (b = 30-70%)

CC(=O)OC12COC1CC(O)C1(C)C(=O)C(OC(=O)NCC(=O)O)C3=C(C)C(OC(=O)C(O)C(NC(=O)c4ccccc4)c4ccccc4)CC(O)(C(OC(=O)c4ccccc4)C21)C3(C)C (centres unmarked) [Compound 12, PXL-10Ca-Gly-OH]
Rhodamine 123 uptake (Pgp): a (a < 0.25)
EC50 (tumor cell lines): > 0.5 µM

CC(=O)OC12COC1CC(O)C1(C)C(=O)C(OC(=O)N(C)CC(=O)O)C3=C(C)C(OC(=O)C(O)C(NC(=O)c4ccccc4)c4ccccc4)CC(O)(C(OC(=O)c4ccccc4)C21)C3(C)C (centres unmarked) [Compound 13, PXL-10Ca-Sar-OH]
Rhodamine 123 uptake (Pgp): b (b = >0.25)
EC50 (tumor cell lines; [2]): > 0.5 µM

COC(=O)C(C)NC(=O)OC1C(=O)C2(C)C(O)CC3OCC3(OC(C)=O)C2C(OC(=O)c2ccccc2)C2(O)CC(OC(=O)C(O)C(NC(=O)c3ccccc3)c3ccccc3)C(C)=C1C2(C)C (centres unmarked) [Compound 39, PXL-10Ca-alanine-Me-ester]
EC50 (tumor cell lines): < 0.01 µM

CC(=O)O[C@H]1C(=O)[C@@]2(C)[C@H]([C@H](OC(=O)c3ccccc3)[C@]3(O)C[C@H](OC(=O)[C@H](O)[C@@H](NC(=O)c4ccccc4)c4ccccc4)C(C)=C1C3(C)C)[C@]1(OC(C)=O)CO[C@@H]1C[C@@H]2O [PXL, Paclitaxel, reference compound]
effect on rhodamine uptake (in words) (Pgp): higher rhodamine uptake
Rhodamine 123 uptake (Pgp): b (b = >0.25)

PXL-10Ca-Glu
EC50 (tumor cell lines; [2]): 0.01 to 0.5 µM

PXL-10Ca-Glucosamine [Compound 5]
MPA: ability of the compound to promote polymerization of tubulin, expressed as percentage of the activity of paclitaxel (tubulin; [1]): a (a > 70%)
EC50 (tumor cell lines; [2]): > 0.5 µM

PXL-10Ca-Gly(tBu) [Compound 14]
Rhodamine 123 uptake (Pgp): b (b = >0.25)
MPA: ability of the compound to promote polymerization of tubulin, expressed as percentage of the activity of paclitaxel (tubulin; [1]): b (b = 30-70%)
EC50 (tumor cell lines; [2]): 0.01 to 0.5 µM

PXL-10Ca-Gly-N(Me)2 [Compound 15]
Rhodamine 123 uptake (Pgp): a (a < 0.25)
EC50 (tumor cell lines; [2]): 0.01 to 0.5 µM

PXL-10Ca-H-Lys-OH [Compound 20]
MPA: ability of the compound to promote polymerization of tubulin, expressed as percentage of the activity of paclitaxel (tubulin; [1]): a (a > 70%)
EC50 (tumor cell lines; [2]): > 0.5 µM

PXL-10Ca-N-methyl-N-butylamine [Compound 22]
MPA: ability of the compound to promote polymerization of tubulin, expressed as percentage of the activity of paclitaxel (tubulin; [1]): a (a > 70%)
EC50 (tumor cell lines; [2]): < 0.01 µM

PXL-10Ca-PEG6000-10Ca-PXL [Compound 29]
MPA: ability of the compound to promote polymerization of tubulin, expressed as percentage of the activity of paclitaxel (tubulin; [1]): a (a > 70%)

PXL-10Ca-PEG(14)-COOH [Compound 25]
MPA: ability of the compound to promote polymerization of tubulin, expressed as percentage of the activity of paclitaxel (tubulin; [1]): a (a > 70%)
EC50 (tumor cell lines; [2]): > 0.5 µM

PXL-10Ca-PEG(29)-VBL [Compound 28]
MPA: ability of the compound to promote polymerization of tubulin, expressed as percentage of the activity of paclitaxel (tubulin; relative to paclitaxel, given as number): 40%
EC50 (tumor cell lines; [2]): 0.01 to 0.5 µM

PXL-10Ca-Ph-acetic acid [Compound 10]
MPA: ability of the compound to promote polymerization of tubulin, expressed as percentage of the activity of paclitaxel (tubulin; [1]): a (a > 70%)
EC50 (tumor cell lines; [2]): > 0.5 µM

PXL-10Ca-Z-Lys-OH [Compound 19]
MPA: ability of the compound to promote polymerization of tubulin, expressed as percentage of the activity of paclitaxel (tubulin; [1]): a (a > 70%)
EC50 (tumor cell lines; [2]): > 0.5 µM

PXL-10Ca-aniline [Compound 9]
MPA: ability of the compound to promote polymerization of tubulin, expressed as percentage of the activity of paclitaxel (tubulin; [1]): b (b = 30-70%)
EC50 (tumor cell lines; [2]): 0.01 to 0.5 µM

PXL-10Ca-di-Et-amine [Compound 23]
MPA: ability of the compound to promote polymerization of tubulin, expressed as percentage of the activity of paclitaxel (tubulin; [1]): c (c < 40%)
EC50 (tumor cell lines; [2]): 0.01 to 0.5 µM

PXL-10Ca-p-NO2-aniline [Compound 18]
MPA: ability of the compound to promote polymerization of tubulin, expressed as percentage of the activity of paclitaxel (tubulin; [1]): b (b = 30-70%)
EC50 (tumor cell lines; [2]): 0.01 to 0.5 µM

PXL-10Ca-piperidine [Compound 6]
MPA: ability of the compound to promote polymerization of tubulin, expressed as percentage of the activity of paclitaxel (tubulin; [1]): b (b = 30-70%)
EC50 (tumor cell lines; [2]): < 0.01 µM

PXL-10CaSpermine [Compound 16]
MPA: ability of the compound to promote polymerization of tubulin, expressed as percentage of the activity of paclitaxel (tubulin; [1]): a (a > 70%)
EC50 (tumor cell lines): > 0.5 µM
